In US6849626B2, “Aza-amino acid derivatives (factor Xa inhibitors 15)” (Merck Patent GmbH, priority 2000, dated 2005) one finds melting point data, which are given here for two molecules.

What is called melting point is the temperature, or range, at which the solid turns liquid. Regarding `CCCN(Nc1cccc(C(=N)N)c1)C(=O)Nc1ccc(-c2ccccc2S(N)(=O)=O)cc1` [Compound 1, 4′-[3-(3-amidinophenyl)-2-propylcarbazoylamino]biphenyl-2-sulfonamide], the melting point is 215 to 216 °C.
In turn, `CCCN(Nc1cccc(C(=N)N)c1)C(=O)NNc1ccc(-c2ccccc2S(C)(=O)=O)cc1` [Compound 15, 1-(3-amidinophenyl)-4-(2′-methylsulfonylbiphenyl-4-ylamino)-2-propylsemicarbazide] displayed a melting point above 300 °C.
